Consider two compounds from patent publication US20010020002A1, “Androgen activity antagonists as therapies for anorexia, anorexia nervosa and disorders characterized by a pathologically underweight condition” (VELA PHARMACEUTICALS INC., priority 1997, published 2001).

The conditions of series [1]: in vivo; cited from earlier work.
Series [2] can be described thus: Example 5: flutamide therapy of cachexia in an AIDS patient. It counts as in vivo, human. As to conditions: person with AIDS, 750 mg daily in three divided doses.
Series [3] can be described thus: Example 1: flutamide therapy of a patient with anorexia nervosa. It is filed as in vivo, human. The note with it: person with AN, 250 mg daily, follow-up in one week.
Protocol: The dose of flutamide is increased to 500 mg daily (250 mg twice a day). They then return every month for an assessment of their symptomatology using the Yale-Brown-Cornell Eating Disorder Scale (YBC-EDS).

`CC(C)C(=O)Nc1ccc([N+](=O)[O-])c(C(F)(F)F)c1` [flutamide]: the half-life – broadly, how long it takes for the measured level to halve – in series [1] was 5.2 h. In series [2], the initial side effects entry is “initial problems with diarrhea and breast tenderness”; the tolerability of therapy result is listed as “tolerated well”. In addition, the tolerability of therapy entry in series [3] is recorded as “tolerated the therapy well”.
Regarding `CC1(C)NC(=O)N(c2ccc([N+](=O)[O-])c(C(F)(F)F)c2)C1=O` [Nilutamide, nilutamide], the half-life in series [1] is 40 h.
